{"source": "patent US7767417B2", "about": "“Prenyl-electrostatic switch, and methods of use” (New York University, priority 2004, dated 2010)", "key": {"[1]": {"tested_on": "GFP-K-Ras", "assay": "Live-cell imaging of GFP-K-Ras translocation from plasma membrane to internal membranes", "format": "cell-based, human", "conditions": "for effect of inhibitor pretreatment on stimulated K-Ras translocation: 100 nM Ro 31-8220 or 15 μg/ml W-13, 10 min prior to stimulation with bryostatin-1 or PMA+Iono", "procedure": "COS-1, HeLa, and MDCK cells were maintained in 5% CO2 in Dulbecco's Modified Eagle Medium (“DMEM”) supplemented with 4 mM 1-glutamine, 1.5 g/L sodium bicarbonate, 4.5 g/L glucose, and 10% fetal bovine serum (“FBS”) (Cellgro®). MDCK cells stably expressing GFP-K-Ras or GFP-H-Ras were selected in G418 and sorted by FACS to yield cell lines expressing relatively low levels of the fluorescent Ras proteins (1-3 fold endogenous by immunoblots). NIH 3T3 cells were maintained in 10% CO2 in DMEM supplemented with 4 mM 1-glutamine, 1.5 g/L sodium bicarbonate, 4.5 g/L glucose, and 10% calf serum (Colorado Serum Co., Denver, Colo.). Jurkat T cells were maintained in 5% CO2 in RPMI containing 10% FBS. Cells to be examined by fluorescence microscopy were seeded at 2×10^5 per plate into 35 mm dishes containing a glass coverslip-sealed 15 mm cutout (MatTek, Ashland, Mass.) and transfected the next day using Lipofectamine (Invitrogen, Carlsbad, Calif.; NIH 3T3), Lipofectamine 2000 (Invitrogen, Carlsbad, Calif.; COS-1, HeLa, MDCK), or DMRIE (Invitrogen, Carlsbad, Calif.; Jurkat), according to the manufacturers' instructions. To ensure co-transfection of untagged cDNAs and fluorescent constructs, a DNA ratio of at least 5:1 (untagged:fluorescent) was used.\n(§1) Cells were stimulated while under continuous observation by adding 100 nM bryostatin-1 (Biomol), 100 nM PMA with or without 500 ng/ml lonomycin, or 5 ng/ml anti-CD3 to 35 mm MatTek plates maintained at 37° C. using a PDMI-2 microincubator (Harvard Apparatus, Holliston, Mass.). Treatment of cells with 100 nM Ro 31-8220 (Biomol, Plymouth Meeting, Pa.) or 15 μg/ml W-13 Hydrochloride (EMD Biosciences, San Diego, Calif.) was initiated 10 min prior to stimulations. Where indicated, 25 pM MitoTracker Red CMXRos (Molecular Probes, Eugene, Oreg.) was added 10 min prior to stimulation. Living cells were imaged with a Zeiss 510 inverted laser scanning confocal microscope (“LSM”). A minimum of five […] Z slices were acquired for each cell at each time point and representative images were chosen to display both plasma membrane and endomembranes. Fluorescence resonance energy transfer (“FRET”) on mitochondria between CFP-K-Ras and YFP-Bcl-XL was detected by bleaching the acceptor (YFP-Bcl-XL) on individual mitochondria and measuring the increase in CFP emission intensity as quenching was released. FRET efficiency was calculated as [ICFP(post-bleach)−ICFP(pre-bleach)]/ICFP(post-bleach). TIFF images were processed with Adobe Photoshop 7.0."}, "[2]": {"tested_on": "NIH 3T3 cells stably transfected with K-Ras12V or K-Ras12V181A", "assay": "Soft agar assay", "format": "cell-based", "conditions": "two weeks", "procedure": "NIH 3T3 cells stably transfected with pCGN-hyg, or the same vector encoding K-Ras12V or K-Ras12V 181 A were plated as single cell suspensions (2×10^4 cells/35-mm well) in 0.4% agar over a bottom layer of 0.6% agar, both containing DMSO vehicle or various concentrations of bryostatin-1. After two weeks, the percentage of plated cells that formed colonies (>5 cell diameters across) was determined."}, "[3]": {"tested_on": "K-Ras12V-dependent tumors", "assay": "Tumor growth assay in nude mice", "format": "in vivo, athymic nude BALB/c mice", "conditions": "intraperitoneal 25 μg/kg daily for 3 days", "procedure": "NIH 3T3 cells stably transfected as per the soft agar assays were injected (5×10^5 cells) subcutaneously into the flanks of 4-6 week old athymic nude BALB/c mice. After formation of palpable tumors, mice were treated daily for 3 days with intraperitoneal DMSO vehicle or bryostatin-1 (25 μg/kg). Tumor volume was measured daily and differences in growth rates were evaluated for statistical significance by ANOVA."}, "[4]": {"tested_on": "a variety of tumors", "conditions": "phase I and II trials, cited from earlier work"}, "[5]": {"tested_on": "K-Ras12V and Bcl-XL", "assay": "Colocalization and FRET between K-Ras12V and Bcl-XL on mitochondria", "format": "cell-based, human", "procedure": "as §1"}, "[6]": {"tested_on": "K-Ras", "assay": "Metabolic labeling with [32P]orthophosphate of COS-1 cells expressing K-Ras constructs", "format": "cell-based, human", "conditions": "100 nM bryostatin-1 for 20 min", "procedure": "Twenty-four hours after transfection with various K-Ras constructs, COS-1 cells were pre-incubated at 37° C. for 4 hours in phosphate-free DMEM containing 10% dialyzed fetal calf serum (“FCS”). The medium was then replaced with phosphate-free DMEM containing 2 mCi of [^32P]orthophosphate. After 6 hours of labeling, the cells were stimulated with 100 nM bryostatin-1 for 20 min at 37° C. Jurkat cells were rinsed three times with prewarmed phosphate-free DMEM, and then incubated at 37° C. for 6 hours in phosphate-free DMEM containing 10% FBS (3:1 undialyzed:dialyzed) and 0.5 mCi/ml [^32P]orthophosphate. After incubation, the ^32P-labeled cells were rinsed with prewarmed phosphate-free DMEM, and then stimulated with either anti-CD3 (10 μg/ml) or vehicle control for 30 min at 37° C. Both types of cells were then lysed in RIPA buffer containing protease inhibitors (Roche, Basel, Switzerland) and 10 μM microcystin and 5 mM NaF. K-Ras was immunoprecipitated using agarose conjugated with Y13-259 monoclonal anti-Ras antibody (Santa Cruz Biotechnology, Inc., Santa Cruz, Calif.), analyzed by SDS-PAGE and visualized by phosphorimager."}, "[7]": {"tested_on": "NIH3T3 cells transformed with K-Ras12V or K-Ras12V181A", "assay": "Apoptosis of K-Ras transformed fibroblasts", "format": "cell-based", "description": "To confirm that K-Ras12V phosphorylated on S181, like phosphomimetic K-Ras12V181E, is pro-apoptotic, the capacity of PKC agonists to induce apoptosis of K-Ras transformed fibroblasts was examined. […] Thus, the sensitization to PKC-mediated apoptosis afforded by K-Ras transformation can be attributed to phosphorylation at S181."}, "[8]": {"tested_on": "endogenous Ras", "assay": "Anti-Ras immunogold electron microscopy of Jurkat T cells", "format": "cell-based", "procedure": "Jurkat cells (in suspension) were treated with 100 nM bryostatin-1 or vehicle (dimethyl sulfoxide (“DMSO”)) for 30 minutes at 37° C. and then fixed with 2% formaldehyde and 0.2% glutaraldehyde in 0.1 M sodium phosphate buffer, pH 7.4. After washing in buffer, the cells were pelleted by centrifugation, embedded in 10% gelatin, cooled in ice, and cut into 1-mm^3 blocks in the cold room. The blocks were infused with 2.3 M sucrose at 4° C. for at least 2 hours, frozen in liquid nitrogen, and stored until cryo-ultramicrotomy. 100-nm-thick section were cut at −120° C. using an Ultracut T/FCS (Leica) equipped with an antistatic device (Diatome) and a diamond knife (Drukker). Ultrathin sections were picked up in a mix of 1.8% methylcellulose and 2.3 M sucrose (1:1) (Liou et al., “Improving Structural Integrity of Cryosections for Immunogold Labeling,” Histochemistry and Cell Biology 106:41-58 (1996), which is hereby incorporated by reference in its entirety). Cryosections were collected on formvar-coated copper grids and incubated with Ras10 monoclonal antibody (Upstate, Charlottesville, Va.) followed by rabbit anti-mouse antibodies and then protein A gold (Slot et al., “A New Method of Preparing Gold Probes for Multiple-Labeling Cytochemistry,” Eur. J. Cell. Biol. 38:87-93 (1985), which is hereby incorporated by reference in its entirety). After labeling, the sections were treated with 1% glutaraldehyde, counterstained with uranyl acetate, and embedded in methyl cellulose-uranyl acetate (Slot et al., “Immuno-Localization of the Insulin Regulatable Glucose Transporter in Brown Adipose Tissue of the Rat,” J. Cell. Biol. 113:123-135 (1991), which is hereby incorporated by reference in its entirety). Images were acquired with a JEOL electron microscope JEM-1200 EX II at 80 kV."}, "[9]": {"conditions": "100 nM bryostatin-1, living cells"}}, "data": [{"compound": "Cn1cc(C2=C(c3cn(CCCSC(=N)N)c4ccccc34)C(=O)NC2=O)c2ccccc21", "note": "[Ro 31-8220]", "values": [{"measurement": "effect of inhibitor pretreatment on stimulated K-Ras translocation", "setting": "[1]", "result": "completely blocked"}]}, {"compound": "NCCCCNS(=O)(=O)c1ccc2c(Cl)cccc2c1", "note": "[W-13]", "values": [{"measurement": "effect of inhibitor pretreatment on stimulated K-Ras translocation", "setting": "[1]", "result": "had no effect"}]}, {"compound": "C=C1[C@@H](O)[C@@H]2O[C@]3(CC[C@H](/C=C/[C@@H](C)[C@@H]4CC(C)=C[C@@]5(O[C@H](C[C@@](C)(O)C(=O)O)CC[C@H]5O)O4)O3)CC[C@H]2O[C@@H]1[C@@H](O)C[C@H](C)[C@H]1O[C@@]2(CCCCO2)CC[C@H]1C", "note": "[okadaic acid]", "values": [{"measurement": "effect on GFP-K-Ras localization (translocation/internalization)", "setting": "[1]; 100 nM PMA with or without 500 ng/ml ionomycin, compared with bryostatin-1", "result": "induced partial internalization"}]}, {"compound": "CCC/C=C/C=C/C(=O)O[C@H]1/C(=C/C(=O)OC)C[C@H]2C[C@H]([C@@H](C)O)OC(=O)C[C@H](O)C[C@@H]3C[C@H](OC(C)=O)C(C)(C)[C@](O)(C[C@@H]4C/C(=C/C(=O)OC)C[C@H](/C=C/C(C)(C)[C@]1(O)O2)O4)O3", "note": "[bryostatin-1]", "values": [{"measurement": "soft agar growth induced by K-Ras12V181A", "setting": "[2]; K-Ras12V181A", "result": "insensitive"}, {"measurement": "K-Ras12V induced colony growth of fibroblasts in soft agar", "setting": "[2]; K-Ras12V", "result": "inhibited"}, {"measurement": "growth of tumors established with K-Ras12V181A transformed fibroblasts", "setting": "[3]", "result": "resistant"}, {"measurement": "growth of tumors established with K-Ras12V transformed fibroblasts", "setting": "[3]; p<0.05, ANOVA", "result": "sensitive"}, {"measurement": "clinical efficacy", "setting": "[4]; variety of tumors", "result": "exhibited clinical efficacy"}, {"measurement": "toxicity", "setting": "[4]", "result": "minimal toxicity"}, {"measurement": "FRET efficiency between YFP-K-Ras12V and CFP-Bcl-XL on treated mitochondria", "setting": "[5]; Cos-1 cell, 5 min after bryostatin-1", "result": "17±8", "unit": "%"}, {"measurement": "colocalization of CFP-K-Ras12V with YFP-Bcl-XL on outer mitochondrial membrane", "setting": "[5]; after stimulation with PKC agonist", "result": "colocalized with YFP-Bcl-XL"}, {"measurement": "phosphorylation of K-Ras (32P incorporation)", "setting": "[6]", "result": "induced phosphorylation"}, {"measurement": "onset of translocation of GFP-K-Ras from the plasma membrane to intracellular membranes", "setting": "[1]; [9]", "result": "< 1", "unit": "min"}, {"measurement": "time to maximal translocation of GFP-K-Ras from the plasma membrane to intracellular membranes", "setting": "[1]; [9]", "result": 3, "unit": "min"}, {"measurement": "reversibility of effect on K-Ras localization", "setting": "[1]; COS-1 cells, GFP-K-Ras12V, 3 min treatment, 10 min washout", "result": "reversible"}, {"measurement": "association of GFP-K-Ras / GFP-H-Ras with mitochondria", "setting": "[1]; MDCK cell lines stably expressing at endogenous levels, MitoTracker Red", "result": "stimulated rapid association of GFP-K-Ras but not GFP-H-Ras with mitochondria"}, {"measurement": "induction of apoptosis in K-Ras12V versus K-Ras12V181A transformed cells", "setting": "[7]", "result": "induced apoptosis to a much higher extent in cells transformed with K-Ras12V than those transformed with K-Ras12V181A"}, {"measurement": "10 nm gold particles per area of cytoplasm (excluding plasma membrane)", "setting": "[8]; 100 nM bryostatin-1 30 min, untreated 6.4±0.5", "result": "31.0±1.1", "unit": "gold particles/μm^2"}, {"measurement": "gold particles associated with mitochondria", "setting": "[8]; bryostatin-1 treated", "result": 49, "unit": "%"}, {"measurement": "mitochondria associated gold particles located within 30 nm of the outer mitochondrial membrane", "setting": "[8]; bryostatin-1 treated", "result": 81, "unit": "%"}]}]}
